The text below walks through data of patent US20250154149A1, “PHARMACEUTICAL COMPOSITION AND METHOD FOR PREPARING ACTIVE INGREDIENT COMPOUND THEREOF” (Betta Pharmaceuticals Co., Ltd., priority 2022, published 2025).

Series [1] in a line: Hygroscopicity test (DVS). Type of series: physicochemical.
In series [2] the test system is NCI-H226 (NF2 expression-deficient) human lung squamous cell carcinoma xenograft. As to the kind of experiment: In vivo efficacy in subcutaneous NCI-H226 xenograft model. Particulars: QD, oral, day 45, NCI-H226 xenograft in BALB/c nude mice. The method, then:
In vivo pharmacodynamics and efficacy studies of the compound represented by Formula I were performed in a subcutaneous NCI-H226 (NF2 expression-deficient) human lung squamous cell carcinoma xenograft model in BALB/c nude mice.
BALB/c nude female mice (6 weeks to 7 weeks) were inoculated subcutaneously with 1×10^7 NCI-H226 tumor cells on the right side of each. The inoculated cells were resuspended in a mixture solution of 0.1 mL of PBS and matrix gel Matrigel (PBS: Matrigel=1:1). Administration treatment was started in groups when the average tumor size reached about 100 mm^3 to 200 mm^3. From the date of grouping, the mice were orally administered the crystal form A of the compound represented by Formula I (solvent: 10% DMSO+10% Solutol (KollipHor HS15)+80% physiological saline) once a day for a total of 45 days (QD×45 days). Animals were regularly monitored for changes in body weight as an indicator of compound safety. Tumors were measured twice weekly using a caliper, and the volume was expressed in mm^3 using the formula “V=(L×W^2)/2”, where V is the tumor volume, L is the length of the tumor (the longest tumor dimension) and W is the width of the tumor (the longest tumor dimension perpendicular to L). Compound inhibitory activity was assessed by tumor growth inhibition TGI (%). […]

Series [3] is described as follows: Pressure stability of the crystal form A. Type of series: physicochemical. Particulars: pressure conditions of 150 kg and 230 kg.
The nature of series [4]: Physicochemical stability test of the crystal form A. The following applies: influencing factors (40° C., 60° C., 92.5% RH, 75% RH, 4500Lx), accelerated test, long-term test. The method, then: Referring to the requirements of “9001 Guidelines for Stability Test of APIs and Pharmaceutical Preparations” in the Chinese Pharmacopoeia, the stability test was conducted on the crystal form A of the compound represented by Formula I, and the specific test conditions are shown in Table 10.

Series [5] has as its system YAP/TAZ-TEAD transcription complex. As to the kind of experiment: CTGF detection (ELISA method) in NCI-H2052 cells. The following applies: NCI-H2052 cells (NF2 mutation), 24 hours incubation, CTGF in culture supernatant by ELISA; read-out: EC50 value (CTGF concentration response curve). Type of series: cell-based, human. The method, then:
The detection of CTGF expression level may assess the activity of the YAP/TAZ-TEAD transcription complex. CTGF expression level was quantitatively detected using a human SimpleStep ELISA® kit (Abcam, ab261851).
NCI-H2052 cells (purchased from ATCC, NF2 mutation) were cultured in RPMI 1640 complete medium (containing 10% FBS, 1% penicillin-streptomycin solution and I mM sodium pyruvate). The day before compound treatment, cultured cells were washed with PBS, digested with trypsin, and then collected by centrifugation. The supernatant was removed, and the cells were resuspended in fresh complete medium. Cells were counted and inoculated in 96-well plates at a density of 6500 cells/well. […]
The Human CTGF ELISA Kit uses an affinity labeled capture antibody and a reporter gene coupled detection antibody to immunocapture the sample analytes in the solution. […] 50 μL of standard or cell supernatant sample to be detected were added to the wells of the detection plate. […] Finally, the OD value at 450 nm of each well was read on a multifunctional microplate reader. The concentrations of the target CTGF protein in the samples were determined by standard curve.
The inhibitory activity of the compound of the present application on the transcription regulatory function of TEAD-YAP/TAZ was assessed by the CTGF concentration response curve of the compound. […]
(In general: In an ELISA, binding on a coated surface is turned into a signal by an enzyme label.)

Another series relates to NCI-H226 cells. As to the kind of experiment: Cell proliferation inhibitory activity detection (CTG detection). Type of series: cell-based. Particulars: Homo sapiens; NCI-H226 cells (NF2 expression-deficient), 144 h, CellTiter-Glo; read-out: IC50 value (inhibition of cell proliferation). Here is the method:
The inhibition of the compound on cell proliferation was detected using CellTiter-Glo® Luminescent Cell Viability Assay Kit (Promega Company). NCI-H226 cells (purchased from ATCC, NF2 expression-deficient) were cultured in RPMI 1640 complete medium (containing 10% FBS, 1% penicillin-streptomycin solution and 1 mM sodium pyruvate). • a) The day before compound treatment, cultured cells were washed with PBS, digested with trypsin, and then collected by centrifugation. The supernatant was removed and the cells were resuspended in fresh RPMI 1640 complete medium. […] Finally, the luminescence signal value (RLU) of each well was read on a multifunctional microplate reader PE En Vision®.
Inhibition rate (IR) of the detected compound: IR (%)=(1−(RLU compound−RLU blank control)/(RLU solvent control−RLU blank control))*100%. The inhibition rates of the compounds at different concentrations were calculated in Excel, then software GraphPad Prism was used to generate inhibition curves, and the relevant parameters were calculated, including the minimum inhibition rate Bottom. the maximum inhibition rate Top and IC50. […]
On the technique in general: ATP-based viability assays read luminescence as a measure of living cells.

A short description of series [6]: Pharmacokinetics in plasma of mice after oral administration. Type of series: in vivo. Particulars: female, BALB/c, mouse, oral (gavage, clear solution), single dose 5 mg/kg. The method, then:
Adult BALB/c female mice (6 weeks to 7 weeks) were received a single administration of the compound represented by Formula I containing 10% to 20% DMSO, 10% Solutol (KollipHor HS15) and 80% to 70% physiological saline as excipient. Mice (n=3) were administered orally (gavage, clear solution) at a dose of 5 mg/kg. Blood was collected after oral administration at the following points of time: 15 min, 30 min, 1 h, 2 h, 4 b, 7 h, and 24 h. About 0.1 mL of whole blood was collected from the retro-orbital venous plexus and placed in a test tube containing EDTA anticoagulant. Samples were centrifuged at 4° C. and 4000 rpm for 10 min. Plasma was transferred to a centrifugal tube and stored at −20° C. before analysis. The concentration of test compound in plasma samples was analyzed by liquid chromatography-tandem mass spectrometry (LC-MS/MS). Plasma concentration-time data from individual animals were analyzed using software Sciex Analyst. A non-compartmental model was introduced in the concentration analysis, and pharmacokinetic parameters of the test compound were calculated using software WinNonlin (version 4.1; pHarsight).

As to `C=C(F)C(=O)N1CC(n2c(=O)n(-c3ccc(C(F)(F)F)cc3)c3nccnc32)C1` [1-[1-(2-fluoroacryloyl)azetidin-3-yl]-3-(4-trifluoromethylphenyl)-1,3-dihydro-2H-imidazo[4,5-b]pyrazin-2-one], in series [1] (after DVS test, XRPD detection), the “Crystal form after the DVS test (XRPD)” value is “no change in the crystal form”. Moreover, in series [1] (dynamic vapor sorption analyzer), the “Hygroscopicity (DVS)” value is on record as “no hygroscopicity”. In addition, the “TGI (%)” value is on record as 109% in series [2] (10 mg/kg) and 111% in series [2] (50 mg/kg). In addition, in series [3], the “Crystal form after pressing” value is given as “the crystal form was not changed”. The “Change in crystal form, characteristics and content compared with day 0” value in series [4] is reported as “no significant change”.
In the case of `C=C(F)C(=O)N1CC(n2c(=O)n(-c3ccc(C(F)(F)F)cc3)c3nccnc32)C1` [compound represented by Formula I, 1-[1-(2-fluoroacryloyl)azetidin-3-yl]-3-(4-trifluoromethylphenyl)-1,3-dihydro-2H-imidazo[4,5-b]pyrazin-2-one], the EC50 in series [5] was 2 nM. Also, the IC50 with NCI-H226 cells came out at 7 nM. Also, in series [6], the AUC(0-t) (usually the area under the concentration-time curve up to a stated or last time point) is 17200 ng·h/mL and the concentration peaked (Cmax) at 1970 ng/mL.
